Patent publication US9725442B2, “Heterocyclic derivative having PGD2 receptor antagonist activity” (Shionogi & Co., Ltd., priority 2011, dated 2017)
pIC50: −log10 of the molar value.

Legend:
[1] = target: CYP2D6 (Homo sapiens (Human), UniProt P10635); assay: CYP inhibition test, dextromethorphan O-demethylation; assay type: in vitro ADME; conditions: pooled human hepatic microsome, 5 μmol/L dextromethorphan
Description: Using commercially available pooled human hepatic microsome, and employing, as markers, 7-ethoxyresorufin O-deethylation (CYP1A2), tolbutamide methyl-hydroxylation (CYP2C9), mephenyloin 4′-hydroxylation (CYP2C19), dextromethorphan O-demethylation (CYP2D6), and terfenedine hydroxylation as typical substrate metabolism reactions of human main five CYP enzyme forms (CYP1A2, 2C9, 2C19, 2D6, 3A4), an inhibitory degree of each metabolite production amount by a compound of the present compound was assessed.
The reaction conditions were as follows: substrate, 0.5 μmol/L ethoxyresorufin (CYP1A2), 100 μmol/L tolbutamide (CYP2C9), 50 μmol/L S-mephenyloin (CYP2C19), 5 μmol/L dextromethorphan (CYP2D6), 1 μmol/L terfenedine (CYP3A4); reaction time, 15 minutes; reaction temperature, 37° C.; enzyme, pooled human hepatic microsome 0.2 mg protein/mL; concentration of a compound of the present invention, 1, 5, 10, 20 μmol/L (four points).
Each five kinds of substrates, human hepatic microsome, or a compound of the present invention in 50 mM Hepes buffer as a reaction mixture was added to a 96-well plate at the composition as described above, NADPH, as a cofactor was added to initiate metabolism reactions as markers and. After the incubation at 37° C. for 15 minutes, a methanol/acetonitrile=1/1 (v/v) solution was added to stop the reaction. After the centrifugation at 3000 rpm for 15 minutes, resorufin (CYP1A2 metabolite) in the supernatant was quantified by a fluorescent multilabel counter and tolbutamide hydroxide (CYP2C9 metabolite), mephenyloin 4′ hydroxide (CYP2C19 metabolite), dextrorphan (CYP2D6 metabolite), and terfenadine alcohol (CYP3A4 metabolite) were quantified by LC/MS/MS.

[2] = BA test (oral absorbability); assay type: in vivo; conditions: rat, plasma; Rats, Oral administration 1 mg/kg
Description: An experimental material and a method for examining oral absorbability • (1) Animals used: rats or mice were used. • (2) Breeding condition: chow and sterilized tap water were allowed to be taken in freely. • (3) Setting of a dosage and grouping: a predetermined dosage was administered orally or intravenously. Groups were formed as shown below. (A dosage varied depending on each compound) Oral administration 1-30 mg/kg (n=2 to 3) Intravenous administration 0.5-10 mg/kg (n=2 to 3) • (4) Preparation of administered liquid: In oral administration, a solution or suspension was administered. […] In intravenous administration, administration from the caudal vein was conducted using a syringe with an injection needle. • (6) Evaluation item: Blood was chronologically collected, and then the concentration of a compound of the present invention blood plasma was measured using a LC/MS/MS. • (7) Statistical analysis: With regard to a shift in plasma concentration, the plasma concentration-time area under the curve (AUC) was calculated using a nonlinear least-squares program WinNonlin®. Bioavailability (BA) was calculated from the AUCs of the oral administration group and the intravenous administration group, respectively. […]

[3] = target: human ether-a-go-go related gene (hERG) channel (Homo sapiens (Human), UniProt Q12809); assay: hERG test (IKr, whole cell patch clamp in HEK293 cells); assay type: cell-based; conditions: 1 μmol/L of the compound, HEK293 cells expressing hERG
Description: For the purpose of assessing risk of an electrocardiogram QT interval prolongation, effects on delayed rectifier K+ current (IKr), which plays an important role in the ventricular repolarization process of the compound of the present invention, was studied using HEK293 cells expressing human ether-a-go-go related gene (hERG) channel.
After a cell was retained at a membrane potential of −80 mV by whole cell patch clamp method using an automated patch clamp system (PatchXpress 7000A, Axon Instruments Inc.) and given leakage potential at −50 mV, IKr induced by depolarization pulse stimulation at +40 mV for 2 seconds and, further, repolarization pulse stimulation at −50 mV for 2 seconds was recorded. After the generated current was stabilized, extracellular solution (NaCl: 135 mmol/L, KCl: 5.4 mmol/L, […]: 0.3 mmol/L, CaCl2.2H2O: 1.8 mmol/L, MgCl2.6H2O: 1 mmol/L, glucose: 10 mmol/L, HEPES (4-(2-hydroxyethyl)-1-piperazineethanesulfonic acid): 10 mmol/L, pH=7.4) in which a compound of the present invention had been dissolved at an objective concentration was applied to the cell under the room temperature condition for 10 minutes. From the recording IKr, an absolute value of the tail peak current was measured based on the current value at the resting membrane potential using an analysis software (DataXpress ver. 2, Molecular Devices Corporation).

Sequence of CYP2D6 (P10635 whole entry): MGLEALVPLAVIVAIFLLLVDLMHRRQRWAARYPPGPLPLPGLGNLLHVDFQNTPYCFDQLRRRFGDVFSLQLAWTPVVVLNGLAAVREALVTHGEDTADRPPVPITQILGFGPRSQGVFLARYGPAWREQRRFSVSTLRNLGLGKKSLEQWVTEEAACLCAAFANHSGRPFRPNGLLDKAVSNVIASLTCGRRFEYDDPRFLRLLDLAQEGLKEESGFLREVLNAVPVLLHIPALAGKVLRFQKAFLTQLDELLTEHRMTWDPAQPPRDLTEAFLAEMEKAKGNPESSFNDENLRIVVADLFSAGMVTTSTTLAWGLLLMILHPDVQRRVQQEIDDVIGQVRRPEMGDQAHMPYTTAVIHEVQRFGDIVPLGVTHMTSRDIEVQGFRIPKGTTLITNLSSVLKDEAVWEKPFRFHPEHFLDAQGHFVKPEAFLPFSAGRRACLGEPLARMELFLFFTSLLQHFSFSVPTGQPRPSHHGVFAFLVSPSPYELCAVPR
Sequence of human ether-a-go-go related gene (hERG) channel (Q12809 whole entry): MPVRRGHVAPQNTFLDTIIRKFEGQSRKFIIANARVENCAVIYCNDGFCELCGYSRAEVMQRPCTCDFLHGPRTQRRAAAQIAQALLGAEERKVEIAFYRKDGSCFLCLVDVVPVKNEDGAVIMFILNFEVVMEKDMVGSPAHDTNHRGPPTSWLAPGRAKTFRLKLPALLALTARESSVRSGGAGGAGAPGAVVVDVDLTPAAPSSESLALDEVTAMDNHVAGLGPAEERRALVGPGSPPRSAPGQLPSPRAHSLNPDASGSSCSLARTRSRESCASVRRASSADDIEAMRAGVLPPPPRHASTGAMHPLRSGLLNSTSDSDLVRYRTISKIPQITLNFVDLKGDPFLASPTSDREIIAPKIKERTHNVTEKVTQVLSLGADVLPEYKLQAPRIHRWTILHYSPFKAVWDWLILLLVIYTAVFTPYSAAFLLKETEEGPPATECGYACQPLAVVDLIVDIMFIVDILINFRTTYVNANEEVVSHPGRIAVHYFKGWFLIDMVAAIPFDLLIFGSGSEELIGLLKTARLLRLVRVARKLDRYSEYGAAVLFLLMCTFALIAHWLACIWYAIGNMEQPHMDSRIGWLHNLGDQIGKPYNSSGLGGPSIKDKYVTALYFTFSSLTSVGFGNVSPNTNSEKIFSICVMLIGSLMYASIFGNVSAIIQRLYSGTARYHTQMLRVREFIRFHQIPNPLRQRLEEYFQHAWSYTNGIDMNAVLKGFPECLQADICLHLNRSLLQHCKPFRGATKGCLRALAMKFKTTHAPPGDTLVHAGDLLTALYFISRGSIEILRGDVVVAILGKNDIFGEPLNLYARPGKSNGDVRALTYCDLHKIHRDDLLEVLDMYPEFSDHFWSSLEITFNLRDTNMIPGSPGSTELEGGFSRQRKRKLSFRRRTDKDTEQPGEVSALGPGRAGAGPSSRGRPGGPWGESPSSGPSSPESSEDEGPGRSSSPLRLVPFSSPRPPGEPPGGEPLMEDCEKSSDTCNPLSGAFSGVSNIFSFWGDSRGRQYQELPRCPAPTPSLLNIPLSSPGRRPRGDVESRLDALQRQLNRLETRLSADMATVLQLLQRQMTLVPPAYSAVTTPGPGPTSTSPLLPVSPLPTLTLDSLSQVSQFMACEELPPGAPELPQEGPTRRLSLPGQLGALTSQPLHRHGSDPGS

| SMILES | pIC50 [1] | bioavailability [2] [%] | % inhibition of IKr tail peak current [3] [%] |
| --- | --- | --- | --- |
| CC(C)Oc1ccc(S(=O)(=O)N2C[C@H](n3nc(CC(=O)O)c4ccc(F)cc43)C[C@H]2C#N)cc1 [Compound I-7] | < 4.70 |  |  |
| CC(C)Oc1ccc(S(=O)(=O)N2C[C@@H](C)[C@@H](n3nc(CC(=O)O)c4ccc(F)cc43)C2)cc1 [Compound I-37] | < 4.70 | 71 | 7.1 |
| CC(C)Oc1ccc(S(=O)(=O)N2C[C@@H](C)[C@@H](n3nc(CC(=O)O)c4ccc(F)cc43)C2)cn1 [Compound I-57] | < 4.70 |  |  |
| CC(C)Oc1ccc(S(=O)(=O)N2C[C@@H](C)[C@@H](n3nc(CC(=O)O)c4ccc(F)cc43)C2)c(F)c1 [Compound I-52] | < 4.70 |  |  |
| CCOc1ccc(S(=O)(=O)N2C[C@@H](C)[C@@H](n3nc(CC(=O)O)c4ccccc43)C2)cn1 [Compound I-96] | < 4.70 | 82 |  |
